From the supplement of paper PMC10307832

Legend:
Assay in all cases: relative viability (nuclei count vs DMSO), 5 days (fraction); higher = more cells survive
GW-2580 + Palbociclib = compound: COC1=CC=C(C=C1)COC2=C(C=C(C=C2)CC3=CN=C(N=C3N)N)OC [GW-2580] + CC(=O)c1c(C)c2cnc(Nc3ccc(N4CCNCC4)cn3)nc2n(C2CCCC2)c1=O [Palbociclib] (partner 0.5 µM)
Method in brief: (§1)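 Nuclei were stained with Hoechst during a one-step fixation (final 0.05% Triton X-100, 1% formaldehyde, 1 ug/ml Hoechst) carried out 5 days after dosing, then counted on 4× images. The cells, lung cancer lines in 1536-well plates, had been dosed by pin tool the day after seeding with one drug alone or a fixed anchor-drug dose plus five library-drug doses (not always all listed) in √10 steps. Relative viability is the nuclei count in treated wells divided by that in vehicle wells, and each value is the median of duplicate plates.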

GW-2580 + Bortezomib = compound: COC1=CC=C(C=C1)COC2=C(C=C(C=C2)CC3=CN=C(N=C3N)N)OC [GW-2580] + CC(C)C[C@H](NC(=O)[C@H](Cc1ccccc1)NC(=O)c1cnccn1)B(O)O [Bortezomib] (partner 0.002 µM)
Method in brief: as §1

GW-2580 + Linsitinib = compound: COC1=CC=C(C=C1)COC2=C(C=C(C=C2)CC3=CN=C(N=C3N)N)OC [GW-2580] + C[C@]1(O)C[C@@H](c2nc(-c3ccc4ccc(-c5ccccc5)nc4c3)c3c(N)nccn32)C1 [Linsitinib] (partner 1 µM)
Method in brief: as §1

Fedratinib + Palbociclib = compound: Cc1cnc(Nc2ccc(OCCN3CCCC3)cc2)nc1Nc1cccc(S(=O)(=O)NC(C)(C)C)c1 [Fedratinib] + CC(=O)c1c(C)c2cnc(Nc3ccc(N4CCNCC4)cn3)nc2n(C2CCCC2)c1=O [Palbociclib] (partner 0.5 µM)
Method in brief: as §1

Fedratinib + Dasatinib = compound: Cc1cnc(Nc2ccc(OCCN3CCCC3)cc2)nc1Nc1cccc(S(=O)(=O)NC(C)(C)C)c1 [Fedratinib] + Cc1nc(Nc2ncc(C(=O)Nc3c(C)cccc3Cl)s2)cc(N2CCN(CCO)CC2)n1 [Dasatinib] (partner 0.075 µM)
Method in brief: as §1

Row | Cell Line | relative viability (GW-2580 + Palbociclib; first compound 0.08 µM) | relative viability (GW-2580 + Palbociclib; first compound 0.8 µM) | relative viability (GW-2580 + Palbociclib; first compound 2.53 µM) | relative viability (GW-2580 + Palbociclib; first compound 8 µM) | relative viability (GW-2580 + Bortezomib; first compound 0.08 µM) | relative viability (GW-2580 + Bortezomib; first compound 0.8 µM) | relative viability (GW-2580 + Bortezomib; first compound 2.53 µM) | relative viability (GW-2580 + Bortezomib; first compound 8 µM) | relative viability (GW-2580 + Linsitinib; first compound 0.08 µM) | relative viability (GW-2580 + Linsitinib; first compound 0.8 µM) | relative viability (GW-2580 + Linsitinib; first compound 2.53 µM) | relative viability (GW-2580 + Linsitinib; first compound 8 µM) | relative viability (Fedratinib + Palbociclib; first compound 0.1 µM) | relative viability (Fedratinib + Palbociclib; first compound 0.3162 µM) | relative viability (Fedratinib + Palbociclib; first compound 1 µM) | relative viability (Fedratinib + Dasatinib; first compound 0.1 µM) | relative viability (Fedratinib + Dasatinib; first compound 0.3162 µM) | relative viability (Fedratinib + Dasatinib; first compound 1 µM)
1 | HARA | 0.238 | 0.24 | 0.265 | 0.291 | 1.2 | 1.17 | 1.33 | 1.31 | 1.09 | 1.06 | 1.08 | 0.845 | 0.261 | 0.301 | 0.214 | 0.217 | 0.155 | 0.24
2 | HCC-15 | 0.82 | 0.814 | 0.706 | 0.56 | 1.06 | 1.16 | 1.05 | 1.02 | 0.989 | 1.02 | 0.834 | 0.785 | 0.664 | 0.708 | 0.636 | 0.508 | 0.58 | 0.337
3 | HCC-44 | 0.98 | 1.02 | 0.961 | 0.967 | 0.95 | 0.997 | 0.822 | 0.914 | 0.736 | 0.759 | 0.628 | 0.687 | 0.95 | 0.968 | 0.983 | – | – | –
4 | HCC-78 | 0.459 | 0.522 | – | 0.5 | 0.457 | 0.422 | 0.353 | 0.465 | 0.541 | 0.574 | 0.371 | 0.486 | 0.47 | 0.443 | 0.476 | 0.384 | 0.309 | 0.306
5 | HCC-366 | 0.388 | 0.475 | 0.488 | 0.405 | 1.22 | 1.08 | 1.24 | 1.12 | 0.51 | 0.678 | 0.496 | 0.882 | 0.603 | 0.355 | 0.315 | 0.601 | 0.595 | 0.428
